Assay results taken from patent publication US20250051375A1, “ANTI-HIV COMPOUNDS” (Gilead Sciences, Inc., priority 2023, published 2025).
pEC50: −log10 of the molar value. Converted amounts (≈) assume the structure as drawn. Read-outs that look alike come from different tables or passages of the source.

What was measured:
[1] = system: HIV-1 IIIB strain; assay: MT-4 HIV Wild Type Virus Infection Assay (IIIB Virus); type: cell-based; conditions: MT-4 cells acutely infected with HIV-1 IIIB, 5 day incubation, Cell-titer glo
Outline: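 MT-4 cells at 2×10^6 cells/ml in RPMI/10% FBS were acutely infected with HIV-1 IIIB for 1 h at 37° C, diluted 25× and added to serially diluted compounds. After 5 days at 37° C, viability read by CellTiter-Glo luminescence; EC50 from dose-response curves.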

[2] = biological target: bovine intestinal alkaline phosphatase (Bos taurus (Bovine), UniProt P19111); assay: BiALP: conversion by bovine intestinal alkaline phosphatase; type: in vitro ADME; conditions: 2 μM substrate, 100 ng/mL iALP, Tris pH 7.8, 37° C., 60 minutes; for [Intermediate A] or [Amprenavir]: parent formed
Outline: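 Compounds at 2 μM final were incubated 60 min at 37° C in 0.1 M Tris-HCl pH 7.8 with 1 mM MgCl2 and 1 mM ZnCl2, with or without 100 ng/mL iALP (0.01 units/mL). Samples were quenched with acetonitrile/formic acid containing labetalol. Conversion was quantified by LC-MS peak area ratios against a 2 μM product standard.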

[3] = PBS Stability Assay; type: physicochemical; conditions: phosphate buffered saline pH 7.4; for half-life at 2 μM: buffer, pH 7.4, 2 μM, read-out: PBS T½; for PBS T½: 2 μM
Outline: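 Test compound at 2 μM final was incubated in PBS, pH 7.4, and sampled at 0, 10, 20, 30, 60 and 120 min into acetonitrile/1% formic acid quench with labetalol internal standard. Remaining compound was quantified by LC-MS peak-area ratio, and half-life came from a first-order exponential fit.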

[4] = Solubility in FaSSIF; conditions: for solubility at 2 h: 23 °C, pH 6.5, fassif, thermodynamic from solid
Outline: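 Concentration measured by HPLC-UV after solid compound was dosed at 5 mg/mL into pH 6.5 fasted-state simulated intestinal fluid containing taurocholate and lecithin (4:1 molar) and vortexed.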

[5] = Human immunodeficiency virus 1, IIIB, MT4, 120 h

Sequence of bovine intestinal alkaline phosphatase (P19111 20-506): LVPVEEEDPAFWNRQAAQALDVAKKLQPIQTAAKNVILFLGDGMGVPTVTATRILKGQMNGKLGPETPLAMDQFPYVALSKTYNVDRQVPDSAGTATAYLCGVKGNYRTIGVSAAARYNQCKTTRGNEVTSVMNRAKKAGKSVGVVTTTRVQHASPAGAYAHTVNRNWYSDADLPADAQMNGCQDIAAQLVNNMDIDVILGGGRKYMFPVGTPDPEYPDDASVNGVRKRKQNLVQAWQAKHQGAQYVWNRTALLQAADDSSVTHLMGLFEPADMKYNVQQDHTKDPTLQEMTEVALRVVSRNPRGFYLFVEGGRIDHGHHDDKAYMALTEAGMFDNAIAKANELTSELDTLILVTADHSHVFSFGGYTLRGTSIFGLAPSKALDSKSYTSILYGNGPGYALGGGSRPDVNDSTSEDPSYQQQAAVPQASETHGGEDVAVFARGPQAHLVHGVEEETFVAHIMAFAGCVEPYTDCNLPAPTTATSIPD

SMILES	pEC50 [1, 5]	[Compound] [2] [nM]	biALP Intermediate A or [Amprenavir] (% of total) [2]	[Intermediate A] or [Amprenavir] [2] [nM]	half-life at 2 μM [3] [h]	solubility at 2 h [4] [µg/mL]	pEC50 ([1]; read-out: EC50)	PBS T½ [3] [h]	FaSSIF (pH 6.5) solubility ([4]; FaSSIF pH 6.5, dose 5 mg/mL, 2-hour incubation, ambient temperature) [μg/mL]	pEC50 [1]
COC(=O)N[C@H](C(=O)N[C@@H](Cc1ccc(C#Cc2cnc(N3CC4CCC(C3)N4C3COC3)nc2)cc1)[C@H](CN(Cc1c(F)cc(-c2ccn(C(F)F)n2)cc1F)NC(=O)[C@@H](NC(=O)OC)C(C)(C)C(F)(F)F)OC(=O)CC(C)(C)c1c(CC(=O)NCc2ccc(C(F)F)cc2)cc(C)cc1OP(=O)(O)O)C(C)(C)C(F)(F)F [Example 50, (5S,10S,11S,14S)-8-(4-(1-(difluoromethyl)-1H-pyrazol-3-yl)-2,6-difluorobenzyl)-11-(4-((2-(8-(oxetan-3-yl)-3,8-diazabicyclo[3.2.1]octan-3-yl)pyrimidin-5-yl)ethynyl)benzyl)-3,6,13,16-tetraoxo-5,14-bis(1,1,1-trifluoro-2-methylpropan-2-yl)-2,17-dioxa-4,7,8,12,15-pentaazaoctadecan-10-yl 3-(2-(2-((4-(difluoromethyl)benzyl)amino)-2-oxoethyl)-4-methyl-6-(phosphonooxy)phenyl)-3-methylbutanoate]	5.77	2228.1	0 % of total	0.3	8.26	< 1000				
COC(=O)N[C@H](C(=O)N[C@@H](Cc1ccc(C#Cc2cnc(N3CC4CCC(C3)N4C3COC3)nc2)cc1)[C@H](CN(Cc1c(F)cc(-c2ccn(C(F)F)n2)cc1F)NC(=O)[C@@H](NC(=O)OC)C(C)(C)C(F)(F)F)OC(=O)CC(C)(C)c1c(CC(=O)N(C)CC(=O)O)cc(C)cc1OP(=O)(O)O)C(C)(C)C(F)(F)F [Example 95]	7.00	1927.5			4.22	4260 (≈ 2740 µM)				
COC(=O)N[C@H](C(=O)N[C@@H](Cc1ccc(C#Cc2cnc(N3CC4CCC(C3)N4C3COC3)nc2)cc1)[C@H](CN(Cc1c(F)cc(-c2ccn(C(F)F)n2)cc1F)NC(=O)[C@@H](NC(=O)OC)C(C)(C)C(F)(F)F)OC(=O)CC(C)(C)c1c(CC(=O)N[C@@H](CC(N)=O)C(=O)O)cc(C)cc1OP(=O)(O)O)C(C)(C)C(F)(F)F [Example 89]	6.94	1704.6			5.29	2390 (≈ 1500 µM)				
COC(=O)N[C@H](C(=O)N[C@@H](Cc1ccc(C#Cc2cnc(N3CC4CCC(C3)N4C3COC3)nc2)cc1)[C@H](CN(Cc1c(F)cc(-c2ccn(C(F)F)n2)cc1F)NC(=O)[C@@H](NC(=O)OC)C(C)(C)C(F)(F)F)OC(=O)CC(C)(C)c1c(CC(=O)N(C)CCC(=O)O)cc(C)cc1OP(=O)(O)O)C(C)(C)C(F)(F)F [Example 94]	7.23	1912			3.72	1580 (≈ 1010 µM)				
COC(=O)N[C@H](C(=O)N[C@@H](Cc1ccc(C#Cc2cnc(N3CC4CCC(C3)N4C3COC3)nc2)cc1)[C@H](CN(Cc1c(F)cc(-c2ccn(C(F)F)n2)cc1F)NC(=O)[C@@H](NC(=O)OC)C(C)(C)C(F)(F)F)OC(=O)CC(C)(C)c1c(CC(=O)N2CCN(CC(=O)O)CC2)cc(C)cc1OP(=O)(O)O)C(C)(C)C(F)(F)F [Example 82]	6.48	1224.3			6.71	< 1000				
COC(=O)N[C@H](C(=O)N[C@@H](Cc1ccc(C#Cc2cnc(N3CC4CCC(C3)N4C3COC3)nc2)cc1)[C@H](CN(Cc1c(F)cc(-c2ccn(C(F)F)n2)cc1F)NC(=O)[C@@H](NC(=O)OC)C(C)(C)C(F)(F)F)OC(=O)CC(C)(C)c1c(CC(=O)Nc2ccc(S(=O)(=O)O)cc2)cc(C)cc1OP(=O)(O)O)C(C)(C)C(F)(F)F [Example 90]	7.00	1746			5.46	4240 (≈ 2590 µM)				
COC(=O)N[C@H](C(=O)N[C@@H](Cc1ccc(C#Cc2cnc(N3CC4CCC(C3)N4C3COC3)nc2)cc1)[C@H](CN(Cc1c(F)cc(-c2ccn(C(F)F)n2)cc1F)NC(=O)[C@@H](NC(=O)OC)C(C)(C)C(F)(F)F)OC(=O)CC(C)(C)c1c(CC(=O)NCC(C)(C)C(=O)O)cc(C)cc1OP(=O)(O)O)C(C)(C)C(F)(F)F [Example 103]	6.88	1589			5.52	80 (≈ 50.5 µM)				
COC(=O)N[C@H](C(=O)N[C@@H](Cc1ccc(C#Cc2cnc(N3CC4CCC(C3)N4C3COC3)nc2)cc1)[C@H](CN(Cc1c(F)cc(-c2ccn(C(F)F)n2)cc1F)NC(=O)[C@@H](NC(=O)OC)C(C)(C)C(F)(F)F)OC(=O)O[C@H](C)OC(=O)CC(C)(C)c1c(CC(=O)O)cc(C)cc1OP(=O)(O)O)C(C)(C)C(F)(F)F [Example 65]		1224.6					7.90	11.15	1310	
COC(=O)N[C@H](C(=O)N[C@@H](Cc1ccc(C#Cc2cnc(N3CC4CCC(C3)N4C3COC3)nc2)cc1)[C@H](CN(Cc1c(F)cc(-c2ccn(C(F)F)n2)cc1F)NC(=O)[C@@H](NC(=O)OC)C(C)(C)C(F)(F)F)OC(=O)CC(C)(C)c1c(CC(=O)N[C@@H](CCC(N)=O)C(=O)O)cc(C)cc1OP(=O)(O)O)C(C)(C)C(F)(F)F [Example 88]	7.37	1726.6	6 % of total	109.8	6.16	4640 (≈ 2880 µM)				
COC(=O)N[C@H](C(=O)N[C@@H](Cc1ccc(C#Cc2cnc(N3CC4CCC(C3)N4C3COC3)nc2)cc1)[C@H](CN(Cc1c(F)cc(-c2ccn(C(F)F)n2)cc1F)NC(=O)[C@@H](NC(=O)OC)C(C)(C)C(F)(F)F)OC(=O)OCOC(=O)CC(C)(C)c1c(CC(=O)N[C@@H](CC(=O)O)C(=O)O)cc(C)cc1OP(=O)(O)O)C(C)(C)C(F)(F)F [Example 68]	8.23	1478.2			6.27	4440 (≈ 2650 µM)				
COC(=O)N[C@H](C(=O)N[C@@H](Cc1ccc(C#Cc2cnc(N3CC4CCC(C3)N4C3COC3)nc2)cc1)[C@H](CN(Cc1c(F)cc(-c2ccn(C(F)F)n2)cc1F)NC(=O)[C@@H](NC(=O)OC)C(C)(C)C(F)(F)F)OC(=O)CC(C)(C)c1c(CC(=O)N(CC(=O)O)CC(=O)O)cc(C)cc1OP(=O)(O)O)C(C)(C)C(F)(F)F [Example 106]	6.12	1588.2			4.52	3920 (≈ 2450 µM)				
COC(=O)N[C@H](C(=O)N[C@@H](Cc1ccc(C#Cc2cnc(N3CC4CCC(C3)N4C3COC3)nc2)cc1)[C@H](CN(Cc1c(F)cc(-c2ccn(C(F)F)n2)cc1F)NC(=O)[C@@H](NC(=O)OC)C(C)(C)C(F)(F)F)OC(=O)CC(C)(C)c1c(CC(=O)N2CC(C(=O)O)CC(C(=O)O)C2)cc(C)cc1OP(=O)(O)O)C(C)(C)C(F)(F)F (stereo partly drawn) [Example 67]	6.69	1747.2	9.1 % of total	175.4	4.32	3160 (≈ 1930 µM)				
COC(=O)N[C@H](C(=O)N[C@@H](Cc1ccc(C#Cc2cnc(N3CC4CCC(C3)N4C3COC3)nc2)cc1)[C@H](CN(Cc1c(F)cc(-c2ccn(C(F)F)n2)cc1F)NC(=O)[C@@H](NC(=O)OC)C(C)(C)C(F)(F)F)OC(=O)CC(C)(C)c1c(CC(=O)NC(CCCC(=O)O)C(=O)O)cc(C)cc1OP(=O)(O)O)C(C)(C)C(F)(F)F (stereo partly drawn) [Example 42]		1335				4020 (≈ 2470 µM)		6.025		7.31
COC(=O)N[C@H](C(=O)N[C@@H](Cc1ccc(C#Cc2cnc(N3CC4CCC(C3)N4C3COC3)nc2)cc1)[C@H](CN(Cc1c(F)cc(-c2ccn(C(F)F)n2)cc1F)NC(=O)[C@@H](NC(=O)OC)C(C)(C)C(F)(F)F)OC(=O)OCOC(=O)CC(C)(C)c1c(CC(=O)NCCS(=O)(=O)O)cc(C)cc1OP(=O)(O)O)C(C)(C)C(F)(F)F [Example 21]	8.44	1281.9	44.7 % of total	1034.6		4340 (≈ 2610 µM)		13.2		
COC(=O)N[C@H](C(=O)N[C@@H](Cc1ccc(C#Cc2cnc(N3CC4CCC(C3)N4C3COC3)nc2)cc1)[C@H](CN(Cc1c(F)cc(-c2ccn(C(F)F)n2)cc1F)NC(=O)[C@@H](NC(=O)OC)C(C)(C)C(F)(F)F)OC(=O)CC(C)(C)c1c(CC(=O)N[C@H]2C[C@H](C(=O)O)C2)cc(C)cc1OP(=O)(O)O)C(C)(C)C(F)(F)F [Example 101]	7.22	1688.4			8.09	1520 (≈ 964 µM)				
COC(=O)N[C@H](C(=O)N[C@@H](Cc1ccc(C#Cc2cnc(N3CC4CCC(C3)N4C3COC3)nc2)cc1)[C@H](CN(Cc1c(F)cc(-c2ccn(C(F)F)n2)cc1F)NC(=O)[C@@H](NC(=O)OC)C(C)(C)C(F)(F)F)OC(=O)OCOC(=O)CC(C)(C)c1c(CC(=O)N[C@@H](CCC(=O)O)C(=O)O)cc(C)cc1OP(=O)(O)O)C(C)(C)C(F)(F)F [Example 70]	8.18	1164.8			5.27	5570 (≈ 3300 µM)				
